# From paper PMC6362850 (European journal of medicinal chemistry, 2018)
# Biological target: T1, HBV Cp (Hepatitis B virus genotype D subtype ayw, UniProt P03146, R150C)
# Assay: not given
# Assay type: binding
# Settings: not given
row,Compound,"Cp binding in TSA, in words"
1,"5-Amino-4-carbamothioyl-N-(3,4-difluorophenyl)-3-methylthiophene-2-carboxamide [Compound 13]",Strong binding
2,"Cc1c(C(=O)Nc2ccccc2)sc(NC(=O)N2CCOCC2)c1C(N)=O [Compound 12a, 3-Methyl-5-(morpholine-4-carboxamido)-N2-phenylthiophene-2,4-dicarboxamide]",completely inactive
3,Cc1c(C(=O)Nc2ccccc2)sc(-n2cnnn2)c1C(N)=O [Compound 12k],completely inactive
4,Cc1c(C(=O)Nc2ccccc2)sc(N)c1C#N [Compound 14a],loss of binding affinity
5,Cc1c(C(=O)Nc2cc(F)c(F)c(Cl)c2)sc(N)c1C#N [Compound 14d],loss of binding affinity
6,Cc1c(C(=O)Nc2ccc(F)c(F)c2)sc(N)c1C(=O)NC1CCCC1 [Compound 16m],retained strong Cp binding
7,Cc1c(C(=O)NCc2ccccc2)sc(N)c1C(N)=O [Compound 19a],strong Cp binding was preserved
8,COc1ccc(NC(=O)c2sc(N)c(C(N)=O)c2C)cc1 [Compound 19b],Cp binding was preserved
9,Cc1c(C(=O)Nc2ccc(F)cc2)sc(N)c1C(N)=O [Compound 19e],strong Cp binding
10,Cc1cc(NC(=O)c2sc(N)c(C(N)=O)c2C)ccc1F [Compound 19h],only the denaturation peak corresponding to fully assemble capsid was observed

# System: not listed separately
# Assay: Aqueous solubility assay in DPBS
# Assay type: physicochemical
# Settings: thermodynamic, 72 h, ambient temperature
row,Aqueous Solubility,Compound
1,poor aqueous solubility,Cc1c(C(=O)Nc2ccc(F)c(F)c2)sc(N)c1C(N)=O [Compound 19g]
2,poor aqueous solubility,Cc1c(C(=O)Nc2ccc(F)c(C#N)c2)sc(N)c1C(N)=O [Compound 19l]
3,poor aqueous solubility,Cc1c(C(=O)Nc2ccc(F)c(C(F)F)c2)sc(N)c1C(N)=O [Compound 19o]

# Biological target: HBV capsid (Hepatitis B virus genotype D subtype ayw, UniProt P03146, R150C)
# Assay: Transmission electron microscopy of HBV capsid assembly
# Assay type: biochemical
# Settings: compared to DMSO control
row,Compound,Effect on HBV capsid assembly (TEM)
1,Cc1cc(NC(=O)c2sc(N)c(C(N)=O)c2C)ccc1F [Compound 19h],promoted the aggregation of HBV capsid

# Biological target: T1, HBV Cp
# Assay: not given
# Settings: HTS of commercial libraries; cited from earlier work
row,Compound,"Binding to HBV Cp in TSA (HTS), in words"
1,"Cc1c(C(=O)Nc2ccccc2)sc(N)c1C(N)=O [Compound 11, 5-Amino-3-methyl-N2-phenylthiophene-2,4-dicarboxamide]",strong binder
